Results: ChEMBL document CHEMBL1156050, “Synthesis and evaluation of 9-aminoacridines derived from benzyne click chemistry” (Bioorg Med Chem Lett, 2009)

What was measured:
Nucleic Acid [1] = test: Displacement of ethidium bromide from DNA by titration
HL-60 = test: Cytotoxicity against human HL60 cells; type: functional, cell-based
Nucleic Acid [2] = test: Binding affinity to DNA; type: nucleic-acid assay
[3] = Homo sapiens, HL-60, read-out: IC50

C50 (Nucleic Acid [1]) | log K (Nucleic Acid [2]) | SMILES | IC50 (HL-60; hl-60) | IC50 (HL-60; [3])
93.2 µM | 5.65 | CN1CCN(C(=O)c2cccc3c(NCCn4nnc5ccccc54)c4ccccc4nc23)CC1 | Not Active | 
13.6 µM | 6.49 | CN(C)CCNC(=O)c1cccc2c(NCCN=[N+]=[N-])c3ccccc3nc12 |  | 0.72 µM
> 200 µM |  | CN1CCN(C(=O)c2cccc3c(NCCN=[N+]=[N-])c4ccccc4nc23)CC1 |  | 52 µM
17.6 µM | 6.37 | CN(C)CCNC(=O)c1ccc2c(NCCN=[N+]=[N-])c3ccccc3nc2c1 |  | 5.4 µM
> 200 µM |  | CN1CCN(C(=O)c2ccc3c(NCCN=[N+]=[N-])c4ccccc4nc3c2)CC1 |  | 45.7 µM
26.2 µM | 6.2 | CN1CCN(C(=O)c2ccc3c(NCCn4nnc5ccccc54)c4ccccc4nc3c2)CC1 | Not Active | 
12.1 µM | 6.54 | CN(C)CCNC(=O)c1ccc2c(NCCn3nnc4ccccc43)c3ccccc3nc2c1 |  | 262 µM
30 µM | 6.14 | CN(C)CCNC(=O)c1cccc2c(NCCn3nnc4ccccc43)c3ccccc3nc12 |  | 23.4 µM
